Data on four compounds can be found in publication PMC4963475, “Two functionally distinct kinetochore pools of BubR1 ensure accurate chromosome segregation” (Nature Communications, 2016).

Non-standard residues stand in square brackets, D forms with d. Residues, ends and D or L forms follow the SMILES beside them. pT = C[C@@H](OP(=O)(O)O)[C@H](N)C(=O)O; Nle = CCCC[C@H](N)C(=O)O

The test system of one experiment is HeLa cells. Conditions: Bub1 RNAi 48 h, nocodazole 2 h, reversine 0.5 μM, 25–35% without reversine.
A further experiment has as its target T1, BubR1/Bub3 (Homo sapiens, UniProt O43684+O60566).
T1 construct: made in house; host or cells: HEK293 cells (transient co-transfection)
The experiment is described as follows: MicroScale Thermophoresis (MST) affinity of MELT peptides for BubR1/Bub3. The experiment is classed as binding. Conditions: for Binding of BubR1/Bub3 to phosphorylated MELT peptide, in words: 50 mM NaCl.

The target of a further experiment is T2, Bub1(1–553)/Bub3 (Homo sapiens, UniProt O43683+O43684).
T2 construct: 15 μg 3 × FLAG–Bub1(1–553)-expressing plasmid; made in house; host or cells: HEK293 cells (transient co-transfection)
The experiment is described as follows: MicroScale Thermophoresis (MST) affinity of MELT peptides for Bub1(1–553)/Bub3. It counts as binding. Conditions: for Binding of Bub1(1–553)/Bub3 to phosphorylated MELT peptide, in words: 50 mM NaCl. The source says: We next wanted to quantitatively compare the ability of BubR1/Bub3 and Bub1/Bub3 to bind MELTp repeats. For this, we purified a FLAG–Bub1(1–553)/Bub3 complex in parallel with FLAG–BubR1/Bub3 (we could not obtain sufficient yields of the full-length Bub1/Bub3 complex, but have recently shown that Bub1 1–553 fully supports SAC signalling[29]). To determine the affinity of the complexes to MELTp repeats, we used MicroScale Thermophoresis (MST). Purified BubR1/Bub3 and Bub1(1–553)/Bub3 complexes were fluorescently labelled with maleimide chemistry for these measurements and tested for their ability to bind phosphorylated MELT12, MELT16 and MELT18 peptides (Fig. 2e–g; Supplementary Fig. 2). The binding of BubR1/Bub3 to MELT12 was strongly dependent on phosphorylation and the measured affinity was sensitive to the salt concentration in the buffer as expected for an interaction depending on electrostatic interactions with the phosphorylated threonine[26] (Fig. 2e–g; Supplementary Fig. 2C). We conducted the affinity measurements at 50 mM NaCl as this produced the best quality data for the Bub1(1–553)/Bub3 complex.
Ten 15-cm dishes were each seeded with 6 × 10^6 HEK293 cells and the next day each transfected with 15 μg 3 × FLAG–BubR1 or 15 μg 3 × FLAG–Bub1(1–553)-expressing plasmid and 15 μg untagged Bub3-expressing plasmid using lipofectamine 2000 (Invitrogen). Forty-eight hours after transfection, the cells were collected by trypsination and cells washed in cold PBS with 1 mM phenylmethyl sulphonyl fluoride. The cells were resuspended in 5 ml buffer A (350 mM NaCl, 50 mM Tris·HCl (pH 8.0), 0.05% NP-40 and protease inhibitor cocktail (Roche)) and lysed using a nitrogen cavitation bomb. Lysate was clarified by centrifugation and then incubated with 300 μl FLAG-affinity resin (Sigma-Aldrich) for 90 min at 4 °C. The FLAG resin was washed with 20 ml buffer A and proteins eluted with three times 300 μl buffer A containing […] 3 × FLAG peptide (Sigma). The eluates were pooled and concentrated to 500 μl and loaded on a Superdex 200 10/300 GL column equilibrated with buffer B (150 mM NaCl, 25 mM HEPES·KOH (pH 7.8), 5% glycerol and 0.5 mM TCEP) and peak fractions eluting at ∼500 kDa pooled and concentrated using a vivaspin-4 concentration device. Proteins were stored at −80 °C.
MST experiments were performed on a NanoTemper Monolith NT.115 instrument with blue/red channels. […] The fluorescently labelled protein complexes were mixed with equivalent volumes (10 μl) of a twofold serial dilution of the different peptides starting at concentrations between 10 and 20 times the calculated KD. The fraction of bound protein was derived from the averaged (1 s averaged) normalized fluorescence signals at t=8 s of the labelled complexes at different ligand concentrations. […]
In general terms: Microscale thermophoresis detects binding through changes in fluorescence in a small temperature gradient.

T1 sequence (O60566 whole entry): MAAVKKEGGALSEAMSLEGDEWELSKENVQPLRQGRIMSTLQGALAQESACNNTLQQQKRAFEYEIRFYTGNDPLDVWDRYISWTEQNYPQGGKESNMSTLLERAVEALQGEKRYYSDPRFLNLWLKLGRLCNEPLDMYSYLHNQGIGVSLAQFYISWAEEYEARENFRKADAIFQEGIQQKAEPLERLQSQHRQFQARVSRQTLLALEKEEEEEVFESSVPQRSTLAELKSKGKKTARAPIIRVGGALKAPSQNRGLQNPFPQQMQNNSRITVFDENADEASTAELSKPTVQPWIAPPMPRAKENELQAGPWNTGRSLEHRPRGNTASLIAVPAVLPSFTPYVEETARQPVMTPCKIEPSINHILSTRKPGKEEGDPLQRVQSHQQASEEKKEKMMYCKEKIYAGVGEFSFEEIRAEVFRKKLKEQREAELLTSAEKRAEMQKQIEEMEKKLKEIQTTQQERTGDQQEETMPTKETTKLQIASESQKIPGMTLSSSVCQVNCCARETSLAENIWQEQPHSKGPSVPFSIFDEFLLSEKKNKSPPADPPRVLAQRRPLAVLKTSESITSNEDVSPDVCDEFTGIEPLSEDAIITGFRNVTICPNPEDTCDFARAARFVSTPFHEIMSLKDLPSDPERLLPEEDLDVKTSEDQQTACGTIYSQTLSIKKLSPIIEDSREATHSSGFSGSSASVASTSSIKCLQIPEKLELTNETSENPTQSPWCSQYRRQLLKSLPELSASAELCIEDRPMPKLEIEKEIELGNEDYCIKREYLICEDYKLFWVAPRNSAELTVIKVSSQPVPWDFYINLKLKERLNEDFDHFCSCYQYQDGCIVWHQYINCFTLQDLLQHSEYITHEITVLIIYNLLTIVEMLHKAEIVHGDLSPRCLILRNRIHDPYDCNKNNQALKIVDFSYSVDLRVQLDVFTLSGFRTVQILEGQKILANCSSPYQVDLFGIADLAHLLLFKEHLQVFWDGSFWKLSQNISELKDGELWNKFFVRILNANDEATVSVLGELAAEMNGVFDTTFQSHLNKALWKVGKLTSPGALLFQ
T1 sequence (O43684 whole entry): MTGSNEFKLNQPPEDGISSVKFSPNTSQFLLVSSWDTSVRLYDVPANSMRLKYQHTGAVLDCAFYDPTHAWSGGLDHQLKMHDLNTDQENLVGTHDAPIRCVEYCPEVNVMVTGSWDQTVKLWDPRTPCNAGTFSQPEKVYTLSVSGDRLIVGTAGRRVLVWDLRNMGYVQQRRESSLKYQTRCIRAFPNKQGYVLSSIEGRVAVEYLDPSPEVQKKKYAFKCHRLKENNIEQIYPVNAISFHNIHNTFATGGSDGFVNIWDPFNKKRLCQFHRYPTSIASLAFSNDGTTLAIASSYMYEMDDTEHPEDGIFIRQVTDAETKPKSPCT
T2 sequence (O43683 1-553 limits assumed): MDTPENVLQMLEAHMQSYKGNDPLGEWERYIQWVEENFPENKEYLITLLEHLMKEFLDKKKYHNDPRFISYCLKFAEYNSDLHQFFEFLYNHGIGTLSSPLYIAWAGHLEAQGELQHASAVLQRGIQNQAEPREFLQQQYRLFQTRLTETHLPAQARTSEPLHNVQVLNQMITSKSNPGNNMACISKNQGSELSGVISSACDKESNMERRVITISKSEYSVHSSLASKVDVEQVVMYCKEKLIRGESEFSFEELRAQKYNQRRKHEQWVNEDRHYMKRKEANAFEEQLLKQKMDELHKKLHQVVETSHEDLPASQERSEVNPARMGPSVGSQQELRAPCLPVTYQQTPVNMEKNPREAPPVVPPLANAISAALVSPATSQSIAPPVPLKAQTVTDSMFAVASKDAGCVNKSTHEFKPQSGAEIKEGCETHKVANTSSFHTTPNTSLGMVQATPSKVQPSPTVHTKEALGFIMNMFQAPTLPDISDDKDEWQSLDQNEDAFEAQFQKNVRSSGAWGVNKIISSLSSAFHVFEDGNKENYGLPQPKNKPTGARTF
T2 sequence (O43684 whole entry): as the sequence (O43684 whole entry) above
Procedure for BubR1/Bub3: To determine the affinity of the complexes to MELTp repeats, we used MicroScale Thermophoresis (MST). Purified BubR1/Bub3 and Bub1(1–553)/Bub3 complexes were fluorescently labelled with maleimide chemistry for these measurements and tested for their ability to bind phosphorylated MELT12, MELT16 and MELT18 peptides (Fig. 2e–g; Supplementary Fig. 2). […] We conducted the affinity measurements at 50 mM NaCl as this produced the best quality data for the Bub1(1–553)/Bub3 complex.
MST experiments were performed on a NanoTemper Monolith NT.115 instrument with blue/red channels. Both complexes, BubR1/Bub3 and Bub1(1–553)/Bub3, were labelled using the Monolith NT Protein Labeling kit RED-MALEIMIDE (NanoTemper Technologies GmbH) according to the supplied protocol. The labelling efficiency was ∼90% and 75%, respectively, and it was estimated by independent measurements of the protein concentration combining spectroscopic measurements and a NT-647 red dye calibration curve in the corresponding MST interaction buffer. Samples were prepared in MST buffer (50 mM HEPES (pH 7.8), 200 mM NaCl, 0.5 mM TCEP, 0.05% Tween 20 or 50 mM Tris (pH 7.8), 50 mM NaCl, 0.5 mM TCEP and 0.05% Tween 20), loaded into premium coated capillaries and measurements were performed at 40% MST power. Laser off/on times were 5 and 30 s, respectively. The fluorescently labelled BubR1/Bub3 and Bub1(1–553)/Bub3 were used at concentrations of 25 and 12.5 nM, respectively, at 40% light-emitting diode power for all peptides except for the double-phosphorylated MELT12 peptide in MST buffer 50 mM Tris (pH 7.8), 50 mM NaCl, 0.5 mM TCEP and 0.05% Tween 20 that were performed at 4 nM concentration of the labelled proteins and 80% light-emitting diode power. […] The fraction of bound protein was derived from the averaged (1 s averaged) normalized fluorescence signals at t=8 s of the labelled complexes at different ligand concentrations. […] The number of independent repeats was three for all measurements and error bars show the s.d. between these independent repeats.
Procedure for HeLa cells: (a) Outline of the synchronization protocol used in this study. Left, RNAi and rescue protocol; right, Bub1 CRISPR/Cas9 knockout protocol. (b) HeLa cells were treated with a control RNAi oligo (luciferase) or an RNAi oligo targeting Bub1 for 48 h and arrested in mitosis using nocodazole for 2 h. Cells were fixed and stained with 4,6-diamidino-2-phenylindole (DAPI), CREST (centromere marker) and Bub1 antibodies. (c,e,g,i) The kinetochore levels of Bub1, BubR1 and KNL1 were determined in the indicated conditions and normalized to CREST. An unpaired t-test was used for statistical comparison of the different samples in e. […] (f) HeLa cells were transfected with Cas9 protein with guide RNA against Bub1 gene for 96 h and treated with nocodazole for 2 h. […] At least 160 individual kinetochores from eight cells were measured in each condition. […]
Cells growing on coverslips were washed once with PBS and fixed with 4% paraformaldehyde in PHEM buffer (60 mM PIPES, 25 mM HEPES, pH 6.9, 10 mM EGTA and 4 mM MgSO4) for 20 min at room temperature. […] Z-stacks 200 nm apart was recorded on a Deltavision Elite microscope (GE Healthcare), using a × 100 oil objective followed by deconvolution using Softworx before quantification. Protein intensity on kinetochores was quantified by drawing a circle closely along the rod-like CREST staining covering the interested outer kinetochore protein staining on both ends. […]

On to `c1nc2nc(Nc3ccc(N4CCOCC4)cc3)nc(NC3CCCCC3)c2[nH]1` [reversine], for which the “BubR1 kinetochore levels remaining (normalized to CREST)” value with HeLa cells is given as about 10%.

With `CCCC[C@H](NC(=O)[C@H](CC(=O)O)NC(=O)[C@H](CC(N)=O)NC(=O)[C@H](CCCCN)NC(=O)[C@H](CC(=O)O)NC(=O)[C@H](CC(=O)O)NC(=O)[C@H](CCC(=O)O)NC(=O)COCCOCCNC(=O)[C@H](CS)NC(=O)COCCOCCNC(=O)CCCC[C@@H]1SC[C@@H]2NC(=O)N[C@@H]21)C(=O)N[C@@H](CC(=O)O)C(=O)N[C@H](C(=O)N[C@H](C(=O)N[C@@H](CCCCN)C(=O)N[C@@H](CO)C(=O)N[C@@H](Cc1ccc(O)cc1)C(=O)N[C@H](C(=O)N[C@H](C(=O)N[C@@H](CCC(=O)O)C(=O)N[C@H](C(=O)N[C@@H](CC(N)=O)C(N)=O)[C@@H](C)CC)[C@@H](C)CC)[C@@H](C)O)[C@@H](C)OP(=O)(O)O)[C@@H](C)CC` [MELT12p], the “Binding of BubR1/Bub3 to phosphorylated MELT peptide, in words” value (“Binding of BubR1/Bub3” below) at BubR1/Bub3 is “bound”. Moreover, the “Binding of Bub1(1–553)/Bub3 to phosphorylated MELT peptide, in words” value (shortened to “Binding of Bub1(1–553)/Bub3”) on Bub1(1–553)/Bub3 is on record as “bound”.

In the case of “TDNYSDLEV-Tp-DSHTVFID-amide [MELT18p, single-phosphorylated MELT18 peptide from KNL1]”, the “Binding of BubR1/Bub3” value at BubR1/Bub3 is on record as “no binding was detected”. Besides, at BubR1/Bub3 (50 mM Tris pH 7.8, 50 mM NaCl, 0.5 mM TCEP, 0.05% Tween 20, labelled BubR1/Bub3 25 nM (4 nM for double-phosphorylated MELT12), three independent repeats), the “BubR1/Bub3 KD” value is given as “No binding”. Besides, at Bub1(1–553)/Bub3, the “Binding of Bub1(1–553)/Bub3” value is on record as “no binding was detected”. Besides, at Bub1(1–553)/Bub3 (50 mM Tris pH 7.8, 50 mM NaCl, 0.5 mM TCEP, 0.05% Tween 20, labelled Bub1(1–553)/Bub3 12.5 nM (4 nM for double-phosphorylated MELT12), three independent repeats), the “Bub1(1–553)/Bub3 KD” value is “No binding”.

For the compound `CCCC[C@H](NC(=O)[C@H](CC(=O)O)NC(=O)[C@H](CC(N)=O)NC(=O)[C@H](CCCCN)NC(=O)[C@H](Cc1c[nH]cn1)NC(=O)[C@H](CC(N)=O)NC(=O)[C@@H](N)CCC(=O)O)C(=O)N[C@@H](CC(=O)O)C(=O)N[C@H](C(=O)N[C@H](C(=O)N[C@@H](CCC(N)=O)C(=O)N[C@@H](CO)C(=O)N[C@@H](CS)C(=O)N[C@@H](CCCC)C(=O)N[C@H](C(=O)N[C@@H](CCC(=O)O)C(=O)N[C@H](C(=O)N[C@@H](CC(=O)O)C(=O)N[C@@H](Cc1ccc(O)cc1)C(N)=O)[C@@H](C)CC)C(C)C)[C@@H](C)OP(=O)(O)O)[C@@H](C)CC` [MELT16p] (H-ENHKND[Nle]DI[pT]QSC[Nle]VEIDY-NH2; N-terminus assumed), the “Binding of BubR1/Bub3” value on BubR1/Bub3 is reported as “bound”. Besides, at Bub1(1–553)/Bub3, the “Binding of Bub1(1–553)/Bub3” value is given as “bound”.
